Publication PMC3776780, “Dual p38/JNK Mitogen Activated Protein Kinase Inhibitors Prevent Ozone-Induced Airway Hyperreactivity in Guinea Pigs” (PLoS ONE, 2013)
pIC50, pKi: −log10 of the molar value. Read-outs that look alike come from different tables or passages of the source.

What was measured:
Test in all cases: spectrophotometric coupled-enzyme kinase inhibition assay
Type in all cases: biochemical
AurA = target: T1, AurA (Homo sapiens, UniProt O14965); settings: read-out: Ki or IC50 AurA
T1 sequence (O14965 1-403): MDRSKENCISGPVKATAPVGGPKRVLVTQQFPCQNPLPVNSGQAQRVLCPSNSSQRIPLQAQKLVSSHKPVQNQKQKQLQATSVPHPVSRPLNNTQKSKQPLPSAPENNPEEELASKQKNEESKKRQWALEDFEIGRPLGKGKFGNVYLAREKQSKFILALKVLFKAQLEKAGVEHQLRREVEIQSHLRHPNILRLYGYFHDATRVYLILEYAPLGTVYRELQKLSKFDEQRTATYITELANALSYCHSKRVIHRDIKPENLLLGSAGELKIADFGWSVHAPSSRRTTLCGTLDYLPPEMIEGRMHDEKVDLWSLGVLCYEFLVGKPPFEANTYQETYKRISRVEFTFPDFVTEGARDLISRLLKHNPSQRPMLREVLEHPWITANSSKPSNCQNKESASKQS
Procedure: (§1) Affinity was measured using a kinase inhibition assay. Compounds were assayed for the inhibition of various kinases using a modification of a spectrophotometric coupled-enzyme assay. In this assay, a fixed concentration of activated kinase (10–40 nM) was incubated with various concentrations of a potential inhibitor dissolved in DMSO for 10 minutes at 30°C in a buffer containing 0.1 M HEPES, pH 7.5, containing 10 mM MgCl2, 2.5 mM phosphoenolpyruvate, 200 µM NADH, 2 mM DTT, 30 µg/mL pyruvate kinase, 10 µg/mL lactate dehydrogenase, and 200 µM–500 µM EGF receptor peptide. The EGF receptor peptide has the sequence […]. The reaction was initiated by the addition of ATP equal to the ATP Km of the kinase, and the assay plate is inserted into the spectrophotometer’s assay plate compartment that was maintained at 30°C. The decrease of absorbance at 340 nm was monitored as a function of time for 10 minutes. The rate data as a function of inhibitor concentration was either fit as an IC50 or to a competitive inhibition kinetic model to determine the compound Ki (see table 1).

CDK2 = CDK2 (Homo sapiens, UniProt P24941); settings: read-out: Ki or IC50 CDK2
Procedure: as §1

ERK2 = ERK2 (Homo sapiens, UniProt P28482); settings: read-out: Ki or IC50 ERK2
Chain of ERK2 (P28482 whole entry, species assumed): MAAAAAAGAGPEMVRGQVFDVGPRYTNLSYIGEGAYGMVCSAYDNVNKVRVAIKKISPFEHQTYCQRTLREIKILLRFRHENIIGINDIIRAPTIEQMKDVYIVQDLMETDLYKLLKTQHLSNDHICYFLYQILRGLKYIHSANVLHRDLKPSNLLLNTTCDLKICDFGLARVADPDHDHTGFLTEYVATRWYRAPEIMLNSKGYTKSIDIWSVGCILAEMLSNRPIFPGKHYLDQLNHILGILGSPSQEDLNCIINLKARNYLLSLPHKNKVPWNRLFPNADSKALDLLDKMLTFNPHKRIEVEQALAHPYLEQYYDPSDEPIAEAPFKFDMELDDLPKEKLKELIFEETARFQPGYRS
Procedure: as §1

GSK3β = GSK3β (Homo sapiens, UniProt P49841)
Chain of GSK3β (P49841 whole entry, species assumed): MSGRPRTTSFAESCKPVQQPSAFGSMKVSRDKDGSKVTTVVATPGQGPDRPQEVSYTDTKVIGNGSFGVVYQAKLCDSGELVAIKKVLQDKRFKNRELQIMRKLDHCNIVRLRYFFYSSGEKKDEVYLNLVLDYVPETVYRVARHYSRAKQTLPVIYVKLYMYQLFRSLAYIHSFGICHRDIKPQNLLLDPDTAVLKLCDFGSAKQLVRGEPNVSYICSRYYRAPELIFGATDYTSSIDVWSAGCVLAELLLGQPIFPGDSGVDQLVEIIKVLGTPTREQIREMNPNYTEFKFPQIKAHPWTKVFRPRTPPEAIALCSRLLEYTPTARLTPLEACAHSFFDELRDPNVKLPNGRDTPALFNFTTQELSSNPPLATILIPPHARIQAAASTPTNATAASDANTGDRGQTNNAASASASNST
Procedure: as §1

IGF1R = IGF1R (Homo sapiens, UniProt P08069); settings: read-out: Ki or IC50 IGF1R
Procedure: as §1

IRAK = settings: read-out: Ki or IC50 IRAK
Procedure: as §1

JNK1 = JNK1 (Homo sapiens, UniProt P45983); settings: ATP equal to Km, 30°C
Chain of JNK1 (P45983 whole entry, species assumed): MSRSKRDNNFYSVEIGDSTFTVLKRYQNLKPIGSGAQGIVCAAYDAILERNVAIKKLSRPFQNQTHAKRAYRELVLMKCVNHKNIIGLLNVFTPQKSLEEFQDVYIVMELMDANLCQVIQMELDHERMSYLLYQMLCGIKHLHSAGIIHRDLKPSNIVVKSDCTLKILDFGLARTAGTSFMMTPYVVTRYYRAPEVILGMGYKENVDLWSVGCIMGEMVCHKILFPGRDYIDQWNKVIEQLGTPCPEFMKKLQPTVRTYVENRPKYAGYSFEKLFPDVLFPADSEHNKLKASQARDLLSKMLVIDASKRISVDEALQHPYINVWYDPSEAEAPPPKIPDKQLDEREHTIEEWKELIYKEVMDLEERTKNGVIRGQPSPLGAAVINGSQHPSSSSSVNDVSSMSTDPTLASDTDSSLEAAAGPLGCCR
Procedure: as §1

JNK2 = JNK2 (Homo sapiens, UniProt P45984); settings: ATP equal to Km, 30°C
Procedure: as §1

JNK3 = JNK3 (Homo sapiens, UniProt P53779); settings: ATP equal to Km, 30°C
Chain of JNK3 (P53779 whole entry, species assumed): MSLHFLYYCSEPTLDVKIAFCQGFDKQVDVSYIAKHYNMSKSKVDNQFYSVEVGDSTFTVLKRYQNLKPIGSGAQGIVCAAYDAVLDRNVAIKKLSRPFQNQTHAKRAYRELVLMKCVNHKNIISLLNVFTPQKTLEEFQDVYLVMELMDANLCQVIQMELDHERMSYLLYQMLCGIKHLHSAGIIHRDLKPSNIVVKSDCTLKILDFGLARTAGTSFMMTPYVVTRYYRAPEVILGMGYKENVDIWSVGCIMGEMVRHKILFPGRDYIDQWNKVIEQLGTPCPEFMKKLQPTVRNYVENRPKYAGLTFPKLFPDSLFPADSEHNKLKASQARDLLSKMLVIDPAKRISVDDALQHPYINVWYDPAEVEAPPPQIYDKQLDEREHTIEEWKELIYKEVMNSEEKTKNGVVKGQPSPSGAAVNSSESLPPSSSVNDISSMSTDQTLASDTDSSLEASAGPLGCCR
Procedure: as §1

MKK6 = target: T2, MKK6 (Homo sapiens, UniProt P52564); settings: read-out: Ki or IC50 MKK6
T2 sequence (P52564 1-334): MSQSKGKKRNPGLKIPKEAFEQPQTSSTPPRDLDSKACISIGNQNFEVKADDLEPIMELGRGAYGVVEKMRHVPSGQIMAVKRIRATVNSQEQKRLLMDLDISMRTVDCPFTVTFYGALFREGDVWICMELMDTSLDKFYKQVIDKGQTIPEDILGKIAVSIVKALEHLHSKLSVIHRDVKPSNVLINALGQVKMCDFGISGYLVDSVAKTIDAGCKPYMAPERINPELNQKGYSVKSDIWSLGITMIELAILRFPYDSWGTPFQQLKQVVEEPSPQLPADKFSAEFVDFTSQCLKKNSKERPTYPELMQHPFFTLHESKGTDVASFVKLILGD
Procedure: as §1

MKK7 = target: T3, MKK7 (Homo sapiens, UniProt O14733); settings: read-out: Ki or IC50 MKK7
T3 sequence (O14733 1-419): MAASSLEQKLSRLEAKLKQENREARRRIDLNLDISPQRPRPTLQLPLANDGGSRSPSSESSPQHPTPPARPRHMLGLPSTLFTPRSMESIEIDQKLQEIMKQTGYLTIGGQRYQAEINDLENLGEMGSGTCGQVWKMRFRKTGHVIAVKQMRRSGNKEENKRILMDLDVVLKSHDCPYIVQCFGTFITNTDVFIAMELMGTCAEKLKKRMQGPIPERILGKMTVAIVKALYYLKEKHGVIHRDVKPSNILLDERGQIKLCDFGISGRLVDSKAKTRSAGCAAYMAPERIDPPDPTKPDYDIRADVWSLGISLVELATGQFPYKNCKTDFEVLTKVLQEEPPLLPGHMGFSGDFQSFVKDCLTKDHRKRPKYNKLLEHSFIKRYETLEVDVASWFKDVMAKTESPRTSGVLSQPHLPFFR
Procedure: as §1

PIM1 = PIM1 (Homo sapiens, UniProt P11309); settings: read-out: Ki or IC50 PIM1
Chain of PIM1 (P11309 whole entry, species assumed): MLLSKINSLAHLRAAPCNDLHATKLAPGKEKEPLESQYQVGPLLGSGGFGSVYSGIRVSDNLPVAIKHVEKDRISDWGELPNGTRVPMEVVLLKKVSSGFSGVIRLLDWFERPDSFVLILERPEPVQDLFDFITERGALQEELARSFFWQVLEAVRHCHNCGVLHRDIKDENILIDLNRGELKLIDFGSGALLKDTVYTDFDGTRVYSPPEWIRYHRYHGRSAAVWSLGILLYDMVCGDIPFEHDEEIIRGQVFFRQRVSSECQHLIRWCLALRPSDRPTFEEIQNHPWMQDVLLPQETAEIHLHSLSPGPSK
Procedure: as §1

ROCK1 = ROCK1 (Homo sapiens, UniProt Q13464); settings: read-out: Ki or IC50 ROCK1
Chain of ROCK1 (Q13464 whole entry, species assumed): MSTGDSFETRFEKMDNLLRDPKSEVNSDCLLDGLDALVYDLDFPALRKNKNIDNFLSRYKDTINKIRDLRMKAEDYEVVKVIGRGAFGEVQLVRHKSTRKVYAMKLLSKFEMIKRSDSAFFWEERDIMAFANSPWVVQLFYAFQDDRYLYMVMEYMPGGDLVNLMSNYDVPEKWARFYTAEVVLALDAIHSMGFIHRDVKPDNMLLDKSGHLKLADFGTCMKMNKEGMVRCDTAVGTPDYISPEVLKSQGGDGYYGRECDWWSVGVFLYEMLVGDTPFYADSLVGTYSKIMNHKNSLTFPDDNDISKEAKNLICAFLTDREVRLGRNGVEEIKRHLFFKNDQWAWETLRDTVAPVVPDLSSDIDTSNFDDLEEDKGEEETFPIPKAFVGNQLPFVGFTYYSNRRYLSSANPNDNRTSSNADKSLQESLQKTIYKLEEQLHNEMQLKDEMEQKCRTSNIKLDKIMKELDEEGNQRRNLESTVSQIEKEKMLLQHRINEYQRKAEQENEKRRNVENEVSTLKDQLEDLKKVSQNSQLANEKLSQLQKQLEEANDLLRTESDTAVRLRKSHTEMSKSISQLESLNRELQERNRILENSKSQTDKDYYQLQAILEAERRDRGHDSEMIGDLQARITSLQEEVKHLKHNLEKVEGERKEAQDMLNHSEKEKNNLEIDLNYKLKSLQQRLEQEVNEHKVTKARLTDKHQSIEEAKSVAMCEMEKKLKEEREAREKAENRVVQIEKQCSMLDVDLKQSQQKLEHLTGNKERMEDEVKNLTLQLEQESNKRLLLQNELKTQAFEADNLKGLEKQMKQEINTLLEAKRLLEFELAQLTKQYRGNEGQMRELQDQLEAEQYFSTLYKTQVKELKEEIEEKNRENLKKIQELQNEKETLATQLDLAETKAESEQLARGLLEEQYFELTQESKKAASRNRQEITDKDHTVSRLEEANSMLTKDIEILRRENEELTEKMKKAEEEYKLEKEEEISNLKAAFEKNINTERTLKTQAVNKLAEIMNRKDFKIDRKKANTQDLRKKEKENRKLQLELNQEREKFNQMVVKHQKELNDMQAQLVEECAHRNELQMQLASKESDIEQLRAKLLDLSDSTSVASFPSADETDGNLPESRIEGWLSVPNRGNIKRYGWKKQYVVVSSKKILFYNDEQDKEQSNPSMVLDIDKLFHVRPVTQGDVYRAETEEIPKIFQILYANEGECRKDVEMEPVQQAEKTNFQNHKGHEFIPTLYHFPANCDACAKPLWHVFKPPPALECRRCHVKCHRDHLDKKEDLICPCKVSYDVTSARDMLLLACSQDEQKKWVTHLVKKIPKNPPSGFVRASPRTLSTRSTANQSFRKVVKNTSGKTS
Procedure: as §1

SRC = SRC (Homo sapiens, UniProt P12931); settings: read-out: Ki or IC50 SRC
Procedure: as §1

cMET = cMET (Homo sapiens, UniProt P08581); settings: read-out: Ki or IC50 cMET
Chain of cMET (P08581 25-1390): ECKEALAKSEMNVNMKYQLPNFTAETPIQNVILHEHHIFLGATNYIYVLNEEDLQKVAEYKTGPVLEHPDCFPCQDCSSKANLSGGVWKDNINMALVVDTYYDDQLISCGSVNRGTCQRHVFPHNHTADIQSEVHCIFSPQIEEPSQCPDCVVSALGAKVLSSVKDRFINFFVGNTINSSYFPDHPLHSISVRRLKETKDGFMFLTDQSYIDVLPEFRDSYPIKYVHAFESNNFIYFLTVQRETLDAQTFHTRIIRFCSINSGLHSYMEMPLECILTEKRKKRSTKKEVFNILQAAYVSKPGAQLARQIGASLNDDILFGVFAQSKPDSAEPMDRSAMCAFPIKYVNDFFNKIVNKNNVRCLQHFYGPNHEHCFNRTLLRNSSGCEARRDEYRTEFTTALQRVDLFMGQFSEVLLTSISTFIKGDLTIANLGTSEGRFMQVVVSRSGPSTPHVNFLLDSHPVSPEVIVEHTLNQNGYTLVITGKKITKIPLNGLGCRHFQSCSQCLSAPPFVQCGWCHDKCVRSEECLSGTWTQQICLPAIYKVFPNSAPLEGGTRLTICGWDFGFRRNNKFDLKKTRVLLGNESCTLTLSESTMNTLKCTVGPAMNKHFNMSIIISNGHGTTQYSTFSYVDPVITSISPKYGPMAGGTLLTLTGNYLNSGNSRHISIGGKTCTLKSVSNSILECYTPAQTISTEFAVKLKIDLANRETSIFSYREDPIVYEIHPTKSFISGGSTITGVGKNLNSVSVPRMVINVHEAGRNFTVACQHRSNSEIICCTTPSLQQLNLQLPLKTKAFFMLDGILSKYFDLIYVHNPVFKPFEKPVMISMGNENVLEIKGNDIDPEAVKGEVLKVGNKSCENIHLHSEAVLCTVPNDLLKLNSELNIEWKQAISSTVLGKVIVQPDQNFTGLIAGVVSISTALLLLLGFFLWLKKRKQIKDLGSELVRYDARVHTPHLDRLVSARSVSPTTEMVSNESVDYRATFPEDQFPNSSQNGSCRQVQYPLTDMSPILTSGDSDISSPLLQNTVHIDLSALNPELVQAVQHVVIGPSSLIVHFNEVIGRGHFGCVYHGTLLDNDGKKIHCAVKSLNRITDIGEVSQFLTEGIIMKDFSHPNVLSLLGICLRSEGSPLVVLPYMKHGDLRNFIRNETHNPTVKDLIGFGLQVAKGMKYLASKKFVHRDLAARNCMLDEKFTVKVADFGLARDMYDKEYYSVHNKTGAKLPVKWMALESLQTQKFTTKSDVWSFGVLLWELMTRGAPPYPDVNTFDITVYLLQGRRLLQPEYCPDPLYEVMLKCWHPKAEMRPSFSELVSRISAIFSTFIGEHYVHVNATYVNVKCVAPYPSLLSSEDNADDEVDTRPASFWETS
Procedure: as §1

p38 = p38 (Homo sapiens, UniProt Q16539); settings: ATP equal to Km, 30°C
Procedure: as §1

Row | pKi (AurA) | pKi (CDK2) | pKi (ERK2) | pKi (GSK3β; read-out: GSK3β Ki) | pKi (IGF1R) | pKi (IRAK) | pKi (JNK1) | pKi (JNK2) | pKi (JNK3) | pKi (MKK6) | pKi (MKK7) | pKi (PIM1) | pKi (ROCK1) | pKi (SRC) | pKi (cMET) | pKi (p38) | pKi (GSK3β; read-out: Ki or IC50 GSK3β) | pIC50 (p38; read-out: IC50 p38 (footnote: this one value is an IC50, not a Ki)) | SMILES
1 | < 6.00 | < 6.00 | < 6.00 | 6.14 | < 6.00 | < 6.00 | 6.77 | 8.00 | 8.30 | < 6.00 | < 6.00 | < 6.00 | < 6.00 | < 6.00 | < 6.00 | 7.89 | – | – | OC1CCN(Cc2onc(-c3ccc(F)cc3)c2-c2ccnc(NC3CCCCC3)n2)CC1 [V-05-013]
2 | < 6.00 | < 6.00 | < 6.00 | – | < 6.00 | < 6.00 | 6.52 | 7.82 | 8.00 | < 6.00 | < 6.00 | < 6.00 | < 6.00 | < 6.00 | < 6.00 | 7.82 | < 6.00 | – | OC[C@@H]1CCCN1Cc1onc(-c2ccc(F)cc2)c1-c1ccnc(NC2CCCCC2)n1 [V-05-014]
3 | < 6.00 | < 6.00 | < 6.00 | – | < 6.00 | < 6.00 | 6.92 | 8.40 | 8.10 | < 6.00 | < 6.00 | < 6.00 | < 6.00 | < 6.00 | < 6.00 | – | < 6.00 | 8.10 | Fc1ccc(-c2noc(CN3CCCCC3)c2-c2ccnc(NC3CCCCC3)n2)cc1 [V-05-015]
